In PMC10461224, “Development of an Affinity-Based Probe to Profile Endogenous Human Adenosine A3 Receptor Expression” (Journal of Medicinal Chemistry, 2023):
Marks after values point to notes of the source that are not given here.

Legend:
human A2BAR (hA2BAR) = target: T1, human A2BAR (hA2BAR) (Homo sapiens, UniProt P29275); assay: Single-point radioligand displacement, [3H]PSB-603; assay type: binding; conditions: 1 μM probe; CHO-spap cell membranes; co-incubated with radioligand 30 min at 25 °C; mean of two experiments
T1 construct: expressed in transfected cells; host or cells: CHO-spap cells (CHO-spap-hA2BAR), gift of S.J. Dowell, GlaxoSmithKline; membrane fractions
T1 sequence (P29275 1-332): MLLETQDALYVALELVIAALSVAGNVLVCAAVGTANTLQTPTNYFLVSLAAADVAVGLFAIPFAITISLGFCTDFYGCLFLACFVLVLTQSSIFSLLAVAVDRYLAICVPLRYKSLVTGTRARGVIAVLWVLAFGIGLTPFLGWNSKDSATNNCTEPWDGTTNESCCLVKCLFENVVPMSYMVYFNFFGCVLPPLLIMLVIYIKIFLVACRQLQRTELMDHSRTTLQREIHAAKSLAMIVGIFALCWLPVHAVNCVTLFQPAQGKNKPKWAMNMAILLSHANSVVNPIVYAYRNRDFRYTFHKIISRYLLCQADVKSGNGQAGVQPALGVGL
Description: (§1) Membrane aliquots containing 15 μg (CHOhA3AR), 5 μg (CHOhA1AR), or 30 μg (HEK293hA2AAR and CHO-spap-A2BAR) of protein were resuspended in assay buffer (A3AR: 50 mM Tris–HCl, pH 8.0, 10 mM MgCl2, 1 mM EDTA, 0.01% CHAPS; A1AR and A2AAR: 50 mM Tris–HCl, pH 7.4; A2BAR: 50 mM Tris–HCl, pH 7.4, 0.1% CHAPS). […] Nonspecific binding was determined in the presence of 100 μM NECA (A3AR), 100 μM CPA (A1AR), 100 μM NECA (A2AAR), and 10 μM ZM241385 (A2BAR). Incubations were terminated by rapid vacuum filtration to separate the bound and free radioligand through prewetted 96-well GF/C filter plates using a PerkinElmer Filtermate harvester. Filters were subsequently washed 12 times with ice-cold wash buffer (A3AR: 50 mM Tris–HCl, pH 8.0, 10 mM MgCl2, 1 mM EDTA; A1AR and A2AAR: 50 mM Tris–HCl, pH 7.4; A2BAR: 50 mM Tris–HCl, pH 7.4, 0.1% BSA). The plates were dried at 55 °C, and MicroscintTM-20 cocktail (PerkinElmer) was added subsequently.
(§2) Single point displacement values shown are mean percentages of two individual experiments performed in duplicate. All pKi values shown are mean values ± SEM of three individual experiments performed in duplicate.

hA3AR [1] = target: T2, hA3AR (Homo sapiens, UniProt P0DMS8); assay: Single-point radioligand displacement, [3H]PSB-11; assay type: binding; conditions: 1 μM probe; CHO cell membranes; co-incubated with radioligand 30 min at 25 °C; mean of two experiments
T2 construct: expressed in transfected cells; host or cells: CHO cells (CHOhA3AR), gift of Prof; K.N. Klotz, University of Würzburg; used as membrane fractions or live cells
T2 sequence (P0DMS8 1-318): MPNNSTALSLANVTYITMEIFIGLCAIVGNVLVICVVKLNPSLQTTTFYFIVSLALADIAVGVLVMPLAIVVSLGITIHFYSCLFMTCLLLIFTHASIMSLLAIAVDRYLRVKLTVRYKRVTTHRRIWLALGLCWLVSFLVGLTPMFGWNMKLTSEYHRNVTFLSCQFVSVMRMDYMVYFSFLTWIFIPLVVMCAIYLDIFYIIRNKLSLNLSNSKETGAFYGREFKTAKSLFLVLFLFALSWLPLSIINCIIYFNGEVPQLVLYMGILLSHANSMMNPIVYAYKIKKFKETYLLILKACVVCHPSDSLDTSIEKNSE
Description: as §1, §2

hA3AR [2] = target: T2, hA3AR; assay: Full curve radioligand displacement assay on the adenosine A3 receptor, [3H]PSB-11; assay type: binding; conditions: mean ± SEM, n=3
Description: Membrane aliquots containing 15 μg of protein (CHOhA3AR) were resuspended in assay buffer (50 mM Tris–HCl, pH 8.0, 10 mM MgCl2, 1 mM EDTA, 0.01% CHAPS). The competing ligand (concentrations ranging from 0.1 to 1000 nM) was added and pre-incubated with the membrane fractions for either 0 or 4 h. The radioligand (10 nM [^3H]PSB-11) was then added and incubated with the samples in a total volume of 100 μL of assay buffer for 30 min at 25 °C. Nonspecific binding was determined in the presence of 100 μM NECA. Incubations were terminated by rapid vacuum filtration through prewetted 96-well GF/C filter plates using a PerkinElmer Filtermate harvester. Filters were subsequently washed 12 times with ice-cold wash buffer (50 mM Tris–HCl, pH 8.0, 10 mM MgCl2, 1 mM EDTA). The plates were dried at 55 °C, and MicroscintTM-20 cocktail (PerkinElmer) was added subsequently. After 3 h, the filter-bound radioactivity was determined using a Tri-Carb 2810TR Liquid Scintillation Analyzer (PerkinElmer).
(§3) […]. Single point displacement values shown are mean percentages of two individual experiments performed in duplicate. All pKi values shown are mean values ± SEM of three individual experiments performed in duplicate. Statistical analysis was performed using a one-way ANOVA test with multiple comparisons (****p < 0.0001).

human A2AAR (hA2AAR) = target: T3, human A2AAR (hA2AAR) (Homo sapiens, UniProt P29274); assay: Single-point radioligand displacement, [3H]ZM241385; assay type: binding; conditions: 1 μM probe; HEK293 cell membranes; co-incubated with radioligand 30 min at 25 °C; mean of two experiments
T3 construct: expressed in transfected cells; host or cells: HEK293 cells (HEKhA2AAR), gift of Dr. J. Wang, Biogen; membrane fractions
T3 sequence (P29274 whole entry): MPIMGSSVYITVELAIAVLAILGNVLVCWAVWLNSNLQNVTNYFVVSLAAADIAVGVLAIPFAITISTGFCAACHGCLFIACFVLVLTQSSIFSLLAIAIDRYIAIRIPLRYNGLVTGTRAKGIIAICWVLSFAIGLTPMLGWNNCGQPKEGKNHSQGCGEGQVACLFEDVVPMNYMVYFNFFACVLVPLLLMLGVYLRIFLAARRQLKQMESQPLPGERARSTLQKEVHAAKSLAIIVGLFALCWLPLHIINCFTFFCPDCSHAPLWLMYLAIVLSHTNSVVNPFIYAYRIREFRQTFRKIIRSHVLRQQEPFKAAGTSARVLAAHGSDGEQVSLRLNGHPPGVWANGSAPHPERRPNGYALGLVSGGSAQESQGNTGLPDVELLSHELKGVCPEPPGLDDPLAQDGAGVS
Description: as §1, §2

hA3AR [3] = target: T2, hA3AR; assay: Wash-out assay, [3H]PSB-11 binding after washing; conditions: 1 μM compound, pre-incubated 2 h at 25 °C, washed 4 times
Description: 200 μL assay buffer (50 mM Tris–HCl, pH 8.0, 10 mM MgCl2, 1 mM EDTA and 0.01% CHAPS), 100 μL assay buffer containing the competing ligand (final concentration: 1 μM), and 100 μL of CHOhA3AR membrane fractions (100 μg protein) were combined and pre-incubated for 2 h at 25 °C while shaking. The ‘4× washed’ samples were centrifuged (5 min, 13,000 rpm, 4 °C), and the supernatant was removed. The resulting pellet was dissolved in 1 mL of assay buffer and incubated for 10 min at 25 °C while shaking. The ‘4× washed’ samples were then again centrifuged (2 min, 13,000 rpm, 4 °C), the supernatant was removed, and the resulting pellet was dissolved in 1 mL of assay buffer. The latter washing steps were repeated two times (four times washing total), and the final pellet was dissolved in 300 μL assay buffer. The radioligand (10 nM [^3H]PSB-11) in 100 μL of assay buffer was added to all samples, and the samples were incubated at 25 °C for 1 h. Nonspecific binding was determined in the presence of 100 μM NECA. Incubations were terminated by addition of 1 mL of ice-cold washing buffer (50 mM Tris–HCl, pH 8.0, 10 mM MgCl2, 1 mM EDTA) and rapid vacuum filtration through prewetted 96-well GF/B filter plates using a Brandel harvester. Filters were subsequently washed 5 times with ice-cold wash buffer. The plates were dried under vacuum, and a MicroscintTM-20 cocktail (PerkinElmer) was added subsequently. After 3 h, the filter-bound radioactivity was determined using a 2450 MicroBeta Microplate Counter (PerkinElmer).

human A1AR (hA1AR) = target: T4, human A1AR (hA1AR) (Homo sapiens, UniProt P30542); assay: Single-point radioligand displacement, [3H]DPCPX; assay type: binding; conditions: 1 μM probe; CHO cell membranes; co-incubated with radioligand 30 min at 25 °C; mean of two experiments
T4 construct: expressed in transfected cells; host or cells: CHO cells (CHOhA1AR), gift of Prof; S.J. Hill, University of Nottingham; membrane fractions
T4 sequence (P30542 1-326): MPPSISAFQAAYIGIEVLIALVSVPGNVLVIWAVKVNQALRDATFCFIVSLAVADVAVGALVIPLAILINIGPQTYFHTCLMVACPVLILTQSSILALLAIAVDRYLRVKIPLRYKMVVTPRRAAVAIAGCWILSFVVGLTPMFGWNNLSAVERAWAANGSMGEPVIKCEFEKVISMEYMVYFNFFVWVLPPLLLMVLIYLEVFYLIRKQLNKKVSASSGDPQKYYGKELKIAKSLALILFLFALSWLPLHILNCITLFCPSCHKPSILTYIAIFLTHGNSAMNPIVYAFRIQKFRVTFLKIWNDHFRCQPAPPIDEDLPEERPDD
Description: as §1, §2

hA2BAR = target: hA2BAR; design: method as in PMID 35395239; conditions: taken from previous experiments ref 71; read-out: KD at CHO-spap-hA2BAR membranes; cited from earlier work
hA1AR = target: T5, hA1AR (Homo sapiens, UniProt P30542); assay: Full curve displacement assays on the hA1AR; assay type: binding; conditions: from full curve displacement assays (Table S1)
T5 construct: expressed in transfected cells; host or cells: CHO cells (CHOhA1AR), gift of Prof; S.J. Hill, University of Nottingham; membrane fractions
T5 sequence (P30542 1-326): T4 sequence (P30542 1-326)
Description: The affinity of the synthesized AfBPs was determined in radioligand binding experiments. First, single concentration displacement assays were carried out on all four human adenosine receptors, using a final probe concentration of 1 μM (Table 1). […] This quick screen indicated a good selectivity toward the hA3AR over the other human ARs, a trend that was also observed in the case of the parent compound.[34] Next, the ‘apparent’ affinities (depicted as pKi values) toward the hA3AR were determined using full curve displacement assays. To study the presumable covalent mode of action, the apparent affinity was determined with (pre-4 h) and without (pre-0 h) 4 h of pre-incubation of AfBP with hA3AR, prior to addition of radioligand. […] This difference in affinity was reflected in a shift in apparent pKi. […] To further investigate selectivity toward the hA3AR over the hA1AR, full curve displacement assays were carried out on the hA1AR.
as §3

C#CCn1c(=O)c2c(nc3cc(OC)ccn32)n(CCCNC(=O)c2ccc(S(=O)(=O)F)cc2)c1=O [compound 13, 4-((3-(8-Methoxy-2,4-dioxo-3-(prop-2-yn-1-yl)-3,4-dihydropyrido[2,1-f]purin-1(2H)-yl)propyl)carbamoyl)benzenesulfonyl fluoride]
% specific [3H]PSB-603 displacement, hA2BAR (human A2BAR (hA2BAR)): 5%
% specific [3H]PSB-11 displacement, hA3AR (hA3AR [1]): 92%
apparent pKi (pre-0 h) (hA3AR [2]; CHO-hA3AR membranes, 25 °C, 0.5 h co-incubation of probe and radioligand, no pre-incubation): 7.17 ± 0.04
apparent pKi (pre-4 h) (hA3AR [2]; CHO-hA3AR membranes, 25 °C, 4 h pre-incubation with probe then 0.5 h co-incubation with radioligand): 8.38 ± 0.05 ^d
fold change, ratio Ki(0 h)/Ki(4 h) (hA3AR [2]; hA3AR): 16.6 ± 3.5
% specific [3H]ZM241385 displacement, hA2AAR (human A2AAR (hA2AAR)): 8%
binding to hA3AR after wash-out ([3H]PSB-11 binding recovery) (hA3AR [3]): persistent binding
% specific [3H]DPCPX displacement, hA1AR (human A1AR (hA1AR)): 25%

CCCn1c(=O)c2c(nc3cc(OC)ccn32)n(CCCNC(=O)c2ccc(S(C)(=O)=O)cc2)c1=O [LUF7714, reference compound]
binding to hA3AR after wash-out ([3H]PSB-11 binding recovery) (hA3AR [3]): full recovery of radioligand binding

CCCn1c(=O)[nH]c2nc(-c3ccc(S(=O)(=O)N4CCN(c5ccc(Cl)cc5)CC4)cc3)[nH]c2c1=O [[^3H]PSB603]
Kd (hA2BAR): 1.7 nM

COc1ccn2c(c1)nc1c2c(=O)[nH]c(=O)n1CCCNC(=O)OC(C)(C)C [compound 11, tert-Butyl-(3-(8-methoxy-2,4-dioxo-3,4-dihydropyrido[2,1-f]purin-1(2H)-yl)propyl)carbamate]
selectivity toward the hA3AR over the hA1AR (hA1AR): > 7 fold
